In patent US20240277662A1, “Administration of a Compound to Individuals with Hepatic Impairment” (Arena Pharmaceuticals, Inc., priority 2021, published 2024):
Read-outs that look alike come from different tables or passages of the source.

What was measured:
[1] = Open-label, parallel-group single-dose PK study of etrasimod in patients with hepatic impairment and matched controls; format: in vivo, human; conditions: single oral dose 2 mg; for half-life: po, 2 mg, read-out: t1/2, mean (converted)
Excerpt: (§1) A study evaluated the effect of hepatic impairment on the PK, safety, and tolerability of etrasimod.
An open-label, parallel-group study included 36 patients (aged 18-80 years; body mass index ≥18) with hepatic impairment, based on Child-Pugh score at screening (mild=5-6 [n=8], moderate=7-9 [n=8], severe=10-14 [n=6]), and demographically matched control patients with normal hepatic function (n=14 total). The first patient with severe hepatic impairment was enrolled after ≥2 patients with mild hepatic impairment and ≥2 patients with moderate hepatic impairment had been enrolled and followed for ≥48 hours after dosing to ensure no significant safety signals were observed. On Day 1, patients received a single oral dose of etrasimod 2 mg after ≥10-hour fast. PK and safety data were collected over 21 days. Safety was assessed by adverse event monitoring, vital signs, physical and neurological examination, 12-lead electrocardiogram (ECG), and clinical laboratory evaluations. Plasma concentrations of etrasimod were determined via liquid chromatography-tandem mass spectrometry (LC-MS/MS) from matrix-matched calibration curves between 0.25 to 100.0 ng/ml and 0.1 to 120.4 ng/mL for total etrasimod (bound and unbound) and unbound etrasimod, respectively. Analyte LC-MS/MS quantitation reagents included an ACE C18 column, a 20-mM ammonium acetate/acetonitrile mobile phase, a Shimadzu LC pump and autosampler, and a Sciex API6500+MS with an electrospray probe in negative multiple reaction monitoring. Plasma protein-free supernatant was collected via ultracentrifugation at 223,000 g for 4 hours. Unbound etrasimod concentrations were only measured four hours post dose and results assumed to apply to other PK collection times. For protein precipitation, acetonitrile was applied to a 1:1 mixed matrix of plasma: supernatant. The positive control was warfarin. Plasma concentrations and PK parameters were summarized by hepatic function using descriptive statistics. Unbound etrasimod PK parameters were based on total etrasimod PK parameters adjusted by percent unbound. Mean plasma concentration-time profiles were presented graphically. Phoenix WinNonlin (CertaraUSA, Inc.) was used for PK analysis.

[2] = Safety and tolerability of a single oral dose of etrasimod in the hepatic impairment study; format: in vivo, human; conditions: single oral dose 2 mg; normal hepatic function or mild, moderate, severe hepatic impairment
Excerpt: as §1
An open-label, parallel-group study included 36 patients (aged 18-80 years; body mass index ≥18) with hepatic impairment, based on Child-Pugh score at screening (mild=5-6 [n=8], moderate=7-9 [n=8], severe=10-14 [n=6]), and demographically matched control patients with normal hepatic function (n=14 total). The first patient with severe hepatic impairment was enrolled after ≥2 patients with mild hepatic impairment and ≥2 patients with moderate hepatic impairment had been enrolled and followed for ≥48 hours after dosing to ensure no significant safety signals were observed. […] Safety was assessed by adverse event monitoring, vital signs, physical and neurological examination, 12-lead electrocardiogram (ECG), and clinical laboratory evaluations. Plasma concentrations of etrasimod were determined via liquid chromatography-tandem mass spectrometry (LC-MS/MS) from matrix-matched calibration curves between 0.25 to 100.0 ng/ml and 0.1 to 120.4 ng/mL for total etrasimod (bound and unbound) and unbound etrasimod, respectively. Analyte LC-MS/MS quantitation reagents included an ACE C18 column, a 20-mM ammonium acetate/acetonitrile mobile phase, a Shimadzu LC pump and autosampler, and a Sciex API6500+MS with an electrospray probe in negative multiple reaction monitoring. […]

[3] = approximately 281 adult subjects treated at various doses; cited from earlier work
ulcerative colitis = conditions: UC patients, cited from earlier work

half-life ([1]; human, plasma, demographically matched normal control groups): 43.9 to 59.5 h
half-life ([1]; human, plasma, mild hepatic impairment group): 55.7 h
half-life ([1]; human, plasma, moderate hepatic impairment group): 69.7 h
half-life ([1]; human, plasma, severe hepatic impairment group): 76.5 h
Tmax ([1]; human, fasted, across all groups, plasma, read-out: median tmax): 4 to 8 h
unbound etrasimod AUC vs demographically matched normal control groups ([1]; all hepatic impairment groups): typically comparable
mean plasma concentration-time profiles ([1]; moderate and severe hepatic impairment groups): slightly higher
mean plasma concentration-time profiles ([1]; normal hepatic function vs mild hepatic impairment groups): overlapped
changes in etrasimod exposure ([1]; patients with mild, moderate or severe hepatic impairment): relatively modest changes
unbound etrasimod Cmax, lower vs demographically matched normal control groups ([1]; progressively lower in mild, moderate and severe hepatic impairment groups): up to 42.0%
peak exposure (Cmax) vs demographically matched normal control groups ([1]; total etrasimod, all hepatic impairment groups): comparable
Compound: O=C(O)C[C@H]1CCc2c1[nH]c1ccc(OCc3ccc(C4CCCC4)c(C(F)(F)F)c3)cc21 [Compound 1, (R)-2-(7-(4-cyclopentyl-3-(trifluoromethyl)benzyloxy)-1,2,3,4-tetrahydrocyclopenta[b]indol-3-yl)acetic acid]
safety findings [2]: no clinically significant safety findings
tolerability [2]: well tolerated
safety and tolerability [3]: safe and well-tolerated
endoscopic and symptomatic improvements versus placebo (ulcerative colitis; 2 mg QD for 12 weeks): clinically meaningful and statistically significant endoscopic and symptomatic improvements
beneficial effects in open-label extension study (ulcerative colitis; up to 46 weeks): Sustained beneficial effects
